The values that follow come from PMC11134387, “Cancer-Stem-Cell Phenotype-Guided Discovery of a Microbiota-Inspired Synthetic Compound Targeting NPM1 for Leukemia” (JACS Au, 2024).

SMILES strings stand for the structures.

Series [1] has as its system primary HSCs from patients with NPM1 C+ AML. As to the kind of experiment: CD34+ liquid HSC short-term culture, NPM1 C+ AML patients. The format is cell-based. Conditions: Homo sapiens, n = 4. Here is the method: Considering the inhibitory capacity of UCM-13369 on AML cell lines (shown in Figure 3A), the therapeutic potential was assessed in primary CD34+ cells from AML patients. Two ex vivo models were used from AML patients and healthy donors: CD34+ liquid HSC (hematopoietic stem cell) culture as a short-term model and CFU-E (colony-forming unit–erythroid) as a midterm model.
The test compound was diluted in PBS. […]
quantitative real-time PCR (qPCR), or were sorted using a FACS BD INFL UX cell sorter (BD Biosciences, Franklin Lakes, NJ, USA). All cells were maintained at 37 °C in a humidified incubator in an atmosphere of 5% CO2, and passaged every 2–3 days. […]
Primary cells. […] After 72 h in maintenance cells were ready to start the assays. […]
Colonospheres, mamospheres and colony formation unit assays. […] After 10 days (mamospheres and colonospheres) and 14 days (CFU-E) we quantified t he number of colonies/spheres and number of cell s (CFU-E) by […]
RNA and DNA extraction and quantitative PCR (qPCR). […] Gene expression was studied from the extracted RNA, processed into cDNA to quantify the expression of NPM1 and c-MYC. […]
The relative amount of targets was determined by the comparative Ct method.
Western blot. […] Lysates wer e cl ear ed by centrifugation (14,000g, 4 °C, 30 min), protein concentration determined by Bradford

Series [2] concerns MCF-7-derived mamospheres. As to the kind of experiment: Formation of MCF-7-derived mamospheres (CSC tumorspheres). Format: cell-based. Here is the method:
(BD Biosciences, Franklin Lakes, NJ, USA). All cells were maintained at 37 °C in a humidified incubator in an atmosphere of 5% CO2, and passaged every 2–3 days.
Additionally, they were cultured using RPMI media (Gibco/Life Technologies; Grand […]
Colonospheres, mamospheres and colony formation unit assays. 30.000 cells per well of MCF-7 cells (mamos pheres), HCT-116 cells (colonospheres) and CD34+ cells from patients (colony formation units) were seeded in serum free non- adherent medium or […]
MethoCult (Stem Cell). […]

The test system of series [3] is HCT-116. As to the kind of experiment: Cytotoxic effect in colon tumor cell line (MTT). Particulars: Homo sapiens, HCT-116, read-out: Viability (%) HCT-116, @5 µM (footnote d).
Procedure: (§1) The cytotoxic effect was determined in breast (MCF-7) and colon (HCT-116) tumor cell lines using MTT assays.
(§2) Cells were seeded at 3 × 10^4 cells/mL in 96-well plates. The test compound was diluted in PBS. […] Viability was evaluated by MTT or WST-1 and dose/response curves were performed.
Series [4] is described as follows: In vivo pharmacokinetic study. Particulars: single intraperitoneal administration, 25 mg/kg, up to 6 h. On the set-up: species or system mouse. Here is the method: Based on the encouraging results obtained in ex vivo models of AML, we further assessed the therapeutic potential of the new NPM1 inhibitor in vivo. Prior to the evaluation of the compound in an animal model of AML, in vivo pharmacokinetic studies were addressed. Following a single intraperitoneal administration of UCM-13369 at a dose of 25 mg/kg, levels of 200–600 μg/L were detected in mouse peripheral blood up to 6 h (Figure 6A). Plasma protein binding of the compound in mouse serum was measured using an equilibrium dialysis assay, indicating a bound fraction of 83 ± 1%. Next, the efficacy of the compound was evaluated in immunodeficient mice after injection of OCI-AML3-ffLuc-GFP cells as an AML animal model.
For the pharmacokinetic study of UCM-13369, after injecting 25 mg/kg dose of the compound, samples of blood were withdrawn at different times (30, 60, 120, 240, 360 min), and the presence of tested compound was analyzed by HPLC-MS. The area of the molecular peak allowed us to calculate the concentration of the compound present in mice serum at each time.

Series [5] relates to MCF-7. As to the kind of experiment: Cytotoxic effect in breast tumor cell line (MTT). Conditions: Homo sapiens, MCF7, read-out: Viability (%) MCF-7, @5 µM (footnote d).
Procedure: as §1, §2
The test system of series [6] is primary CD34+ cells from AML patients. As to the kind of experiment: Flow cytometry CD34-PE/Annexin V-FITC of primary HSCs from AML patients. Format: cell-based, human. Conditions: 5μM, representative sample. How it is done: The inhibition of NPM1, especially NPM1 C+ pathway (as shown in Figure 4), by UCM-13369 correlates with the increase of apoptosis observed in treated primary CD34+ cells upon staining with Annexin V (Figure 5C).
CFU-E and CD34+ primary cells with and without UCM-13369 treatment were analyzed. The following monoclonal antibodies were used: CD34-PE, Annexin V-FITC (BD Biosciences). The cells were incubated with antibodies in PBS on ice for 15 min in the dark. The analysis of CD34+ and Annexin V+ subpopulation was carried out in a flow cytometer FACSCalibur (Becton Dickinson, Citometría y Microscopía de Fluorescencia core facility, UCM) and the data were processed using FlowJo_V10 software.
Background: In flow cytometry, cells or beads pass a laser one at a time.

The term IC50 denotes the point on the concentration scale where inhibition reaches its midpoint. Read a high IC50 as lower potency. As a reminder, the inhibition is the change of the read-out against control, counted positive when it falls. One may read the viability as a read-out of living cells in per cent, often relative to untreated cells.

For `COc1ccc(C2Cc3[nH]c4ccccc4c3C(CCNCC3CC3)C2N)cc1` (stereo not shown) [4b, 4-{2-[(Cyclopropylmethyl)amino]ethyl}-2-(4-methoxyphenyl)-2,3,4,9-tetrahydro-1H-carbazol-3-amine], 1720 nM corresponded to half-maximal inhibition in series [1] (IC50). The inhibition at 5 µM in series [2] (Homo sapiens, MCF7, @5 µM (footnote d), read-out: Inhibition of tumorsphere formation (%) MCF-7) was found to be 100%. The “Formation of tumorspheres (in words)” value in series [2] (MCF-7 mamospheres and HCT-116 colonospheres, noncytotoxic concentration) is reported as “completely inhibit”. Further, the viability at 5 µM in series [3] turned out to be 70%; in series [5], 96%. Moreover, in series [4], the “Levels in mouse peripheral blood” value was in the range of 200 to 600 ng/mL. The “CD34+/AnnexinV+” value in series [6] turned out to be 43.09%.
